# Measurements reported in PubChem BioAssay AID248 (DTP/NCI, 2004).
# Several values for one entry are separate records, joined by “and”; a condition that tells them apart may be missing. Identical values can stand only once. Inconclusive results and toxic doses are left out.
# Tested on: L1210 leukemia ip in BDF1 mice, survival T/C
# Test: NCI In Vivo Anticancer Drug Screen. Data for tumor model L1210 Leukemia (intraperitoneal) in B6D2F1 (BDF1) mice
# Details: endpoint: mean survival time, higher = longer survival
# Procedure, shortened: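 Tumor was transplanted into mice, which were then dosed with test compound or vehicle alone. Survival was recorded for each group, and the treated figure was expressed relative to the control figure.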
# [1] = dose: 100.0 mg/kg/injection, schedule: Q01DX001 (ip), vehicle: carboxymethylcellulose (CMC)
# [2] = dose: 200.0 mg/kg/injection, schedule: Q01DX001 (ip), vehicle: carboxymethylcellulose (CMC)
# [3] = dose: 100.0 mg/kg/injection, schedule: Q01DX009 (ip), vehicle: saline with Tween-80
# [4] = dose: 100.0 mg/kg/injection, schedule: Q04DX003 (ip), vehicle: saline with Tween-80
# [5] = dose: 200.0 mg/kg/injection, schedule: Q01DX009 (ip), vehicle: saline with Tween-80
# [6] = dose: 200.0 mg/kg/injection, schedule: Q04DX003 (ip), vehicle: saline with Tween-80
# [7] = dose: 100.0 mg/kg/injection, schedule: Q04DX002 (ip), vehicle: saline with Tween-80
# [8] = dose: 200.0 mg/kg/injection, schedule: Q04DX002 (ip), vehicle: saline with Tween-80
# [9] = dose: 400.0 mg/kg/injection, schedule: Q04DX002 (ip), vehicle: saline with Tween-80
# [10] = dose: 100.0 mg/kg/injection, schedule: Q04DX003 (ip), vehicle: Klucel (hydroxypropylcellulose) (HPC)
# [11] = dose: 200.0 mg/kg/injection, schedule: Q04DX003 (ip), vehicle: Klucel (hydroxypropylcellulose) (HPC)
# [12] = dose: 400.0 mg/kg/injection, schedule: Q04DX003 (ip), vehicle: Klucel (hydroxypropylcellulose) (HPC)
structure (smiles),measurement,setting,value
CCC(C)(C)c1cccc(C(=O)O)c1O,T/C,[1],104 % of control
same,T/C,[2],93 % of control
COCCNc1ccc(NCCOC)c2c1C(=O)c1ccccc1C2=O,T/C,"dose: 87.5 mg/kg/injection, schedule: Q04DX003 (ip), vehicle: Klucel (hydroxypropylcellulose) (HPC)",91 % of control
same,T/C,"dose: 175.0 mg/kg/injection, schedule: Q04DX003 (ip), vehicle: Klucel (hydroxypropylcellulose) (HPC)",91 % of control
same,T/C,"dose: 350.0 mg/kg/injection, schedule: Q04DX003 (ip), vehicle: Klucel (hydroxypropylcellulose) (HPC)",88 % of control
Cc1ccccc1OP(=S)(NN)Oc1ccccc1C,T/C,"dose: 100.0 mg/kg/injection, schedule: Q04DX002 (ip), vehicle: Klucel (hydroxypropylcellulose) (HPC)",93 % of control
same,T/C,"dose: 200.0 mg/kg/injection, schedule: Q04DX002 (ip), vehicle: Klucel (hydroxypropylcellulose) (HPC)",100 % of control
same,T/C,"dose: 400.0 mg/kg/injection, schedule: Q04DX002 (ip), vehicle: Klucel (hydroxypropylcellulose) (HPC)",100 % of control
CCCN(CCC)CCCCO,T/C,"dose: 50.0 mg/kg/injection, schedule: Q01DX009 (ip), vehicle: saline with Tween-80",102 % of control
same,T/C,[3],95 % of control
same,T/C,[4],92 % of control
same,T/C,[5],102 % of control
same,T/C,[6],102 % of control
O=C(Nc1ccc(Cl)cc1[N+](=O)[O-])Oc1ccc(C(=O)OCc2ccccc2)cc1,T/C,"dose: 100.0 mg/kg/injection, schedule: Q01DX009 (ip), vehicle: Klucel (hydroxypropylcellulose) (HPC)",101 % of control
same,T/C,"dose: 200.0 mg/kg/injection, schedule: Q01DX009 (ip), vehicle: Klucel (hydroxypropylcellulose) (HPC)",103 % of control
same,T/C,"dose: 400.0 mg/kg/injection, schedule: Q01DX009 (ip), vehicle: Klucel (hydroxypropylcellulose) (HPC)",110 % of control
Oc1ccccc1/C=N\Sc1ccc(Br)cc1,T/C,[7],112 % of control
same,T/C,[8],91 % of control
same,T/C,[9],94 % of control
COc1cc(Br)c(CCC(=O)O)cc1OC,T/C,"dose: 100.0 mg/kg/injection, schedule: Q01DX009 (ip), vehicle: saline",97 % of control
same,T/C,[4],96 % of control
same,T/C,"dose: 200.0 mg/kg/injection, schedule: Q01DX009 (ip), vehicle: saline",94 % of control
same,T/C,[6],114 % of control
same,T/C,"dose: 400.0 mg/kg/injection, schedule: Q01DX009 (ip), vehicle: saline",100 % of control
same,T/C,"dose: 400.0 mg/kg/injection, schedule: Q04DX003 (ip), vehicle: saline with Tween-80",91 % of control
CCCCC(=O)C(CCC)C(=O)Nc1ccccc1 (stereo not drawn),T/C,"dose: 50.0 mg/kg/injection, schedule: Q04DX003 (ip), vehicle: Klucel (hydroxypropylcellulose) (HPC)",98 % of control
same,T/C,[1],100 % of control
same,T/C,[10],94 % of control and 98 % of control
same,T/C,[2],91 % of control
same,T/C,[11],96 % of control and 98 % of control
same,T/C,"dose: 400.0 mg/kg/injection, schedule: Q01DX001 (ip), vehicle: carboxymethylcellulose (CMC)",91 % of control
same,T/C,[12],98 % of control
CC(=O)N(O)CCCCCNC(=O)CCC(=O)N(O)CCCCCNC(=O)CCC(=O)N(O)CCCCCN,T/C,"dose: 83.0 mg/kg/injection, schedule: Q03HX024 (ip), vehicle: water",103 % of control
same,T/C,"dose: 125.0 mg/kg/injection, schedule: Q03HX024 (ip), vehicle: water",102 % of control
same,T/C,"dose: 420.0 mg/kg/injection, schedule: Q03HX024 (ip), vehicle: clinical formulation",102 % of control
same,T/C,"dose: 420.0 mg/kg/injection, schedule: Q03HX024 (ip), vehicle: water",95 % of control and 103 % of control
O=C(CCCCCCCCC(=O)N/N=C/c1ccc(O)cc1)N/N=C/c1ccc(O)cc1,T/C,"dose: 100.0 mg/kg/injection, schedule: Q01DX001 (ip), vehicle: saline with Tween-80",90 % of control
same,T/C,[3],89 % of control and 92 % of control
same,T/C,[7],97 % of control and 100 % of control
same,T/C,"dose: 100.0 mg/kg/injection, schedule: Q04DX003 (ip), vehicle: saline",97 % of control
same,T/C,"dose: 200.0 mg/kg/injection, schedule: Q01DX001 (ip), vehicle: saline with Tween-80",92 % of control
same,T/C,[5],100 % of control and 87 % of control
same,T/C,[8],95 % of control and 97 % of control
same,T/C,"dose: 200.0 mg/kg/injection, schedule: Q04DX003 (ip), vehicle: saline",92 % of control
same,T/C,"dose: 400.0 mg/kg/injection, schedule: Q01DX001 (ip), vehicle: saline with Tween-80",95 % of control
same,T/C,"dose: 400.0 mg/kg/injection, schedule: Q01DX009 (ip), vehicle: saline with Tween-80",101 % of control and 87 % of control
same,T/C,[9],94 % of control and 92 % of control
same,T/C,"dose: 400.0 mg/kg/injection, schedule: Q04DX003 (ip), vehicle: saline",88 % of control
ClCC/C(=C(/Cl)c1ccccc1)c1ccccc1,T/C,[10],103 % of control
same,T/C,[11],98 % of control
same,T/C,[12],98 % of control
C1=Nc2c(ncnc2SCc2ccccc2)NN1,T/C,"dose: 5.0 mg/kg/injection, schedule: Q01DX001 (ip), vehicle: other",100 % of control
same,T/C,"dose: 10.0 mg/kg/injection, schedule: Q01DX001 (ip), vehicle: other",106 % of control
same,T/C,"dose: 20.0 mg/kg/injection, schedule: Q01DX001 (ip), vehicle: other",100 % of control
same,T/C,"dose: 40.0 mg/kg/injection, schedule: Q01DX001 (ip), vehicle: other",100 % of control
same,T/C,"dose: 50.0 mg/kg/injection, schedule: Q01DX001 (ip), vehicle: other",113 % of control
same,T/C,"dose: 80.0 mg/kg/injection, schedule: Q01DX001 (ip), vehicle: other",93 % of control
same,T/C,"dose: 100.0 mg/kg/injection, schedule: Q01DX001 (ip), vehicle: other",88 % of control
CCSC1C(O)C(C(O)CO)OC1n1ccc(=O)[nH]c1=O (stereo not drawn),T/C,"dose: 100.0 mg/kg/injection, schedule: Q01DX005 (ip), vehicle: saline",96 % of control
same,T/C,"dose: 200.0 mg/kg/injection, schedule: Q01DX005 (ip), vehicle: saline",98 % of control
CC[n+]1cccc(NC(=O)c2ccc(NC(=O)c3ccc(C(=O)Nc4ccc(C(=O)Nc5ccc[n+](CC)c5)cc4)cc3)cc2)c1,T/C,"dose: 0.25 mg/kg/injection, schedule: Q01DX009 (ip), vehicle: saline",110 % of control
same,T/C,"dose: 4.0 mg/kg/injection, schedule: Q01DX001 (ip), vehicle: saline",115 % of control and 117 % of control
same,T/C,"dose: 4.0 mg/kg/injection, schedule: Q01DX009 (ip), vehicle: saline",157 % of control and 160 % of control
same,T/C,"dose: 4.4 mg/kg/injection, schedule: Q01DX Z (ip), vehicle: carboxymethylcellulose (CMC)",120 % of control
same,T/C,"dose: 6.7 mg/kg/injection, schedule: Q01DX Z (ip), vehicle: carboxymethylcellulose (CMC)",92 % of control
same,T/C,"dose: 8.0 mg/kg/injection, schedule: Q01DX009 (ip), vehicle: saline",228 % of control
same,T/C,"dose: 16.0 mg/kg/injection, schedule: Q01DX009 (ip), vehicle: saline",121 % of control and 124 % of control
same,T/C,"dose: 32.0 mg/kg/injection, schedule: Q01DX001 (ip), vehicle: saline",189 % of control
same,T/C,"dose: 64.0 mg/kg/injection, schedule: Q01DX001 (ip), vehicle: saline",229 % of control
C/C(=C1\SC(=S)N(C2OC(CO)C(O)C(O)C2O)C1=O)c1ccco1 (stereo not drawn),T/C,"dose: 12.5 mg/kg/injection, schedule: Q01DX005 (ip), vehicle: water",109 % of control
same,T/C,"dose: 25.0 mg/kg/injection, schedule: Q01DX005 (ip), vehicle: water",95 % of control
same,T/C,"dose: 50.0 mg/kg/injection, schedule: Q01DX005 (ip), vehicle: water",111 % of control
same,T/C,"dose: 100.0 mg/kg/injection, schedule: Q01DX005 (ip), vehicle: water",98 % of control
same,T/C,"dose: 200.0 mg/kg/injection, schedule: Q01DX005 (ip), vehicle: water",93 % of control
CCCCN(C)/N=N/c1nc[nH]c1C#N,T/C,"dose: 75.0 mg/kg/injection, schedule: Q01DX001 (ip), vehicle: other",105 % of control
same,T/C,"dose: 75.0 mg/kg/injection, schedule: Q01DX009 (ip), vehicle: saline with Tween-80",103 % of control
same,T/C,"dose: 75.0 mg/kg/injection, schedule: Q04DX003 (ip), vehicle: saline with Tween-80",105 % of control
same,T/C,"dose: 150.0 mg/kg/injection, schedule: Q01DX001 (ip), vehicle: other",102 % of control
same,T/C,"dose: 150.0 mg/kg/injection, schedule: Q01DX009 (ip), vehicle: saline with Tween-80",105 % of control
same,T/C,"dose: 150.0 mg/kg/injection, schedule: Q04DX003 (ip), vehicle: saline with Tween-80",96 % of control
same,T/C,"dose: 300.0 mg/kg/injection, schedule: Q01DX001 (ip), vehicle: other",101 % of control
same,T/C,"dose: 300.0 mg/kg/injection, schedule: Q01DX009 (ip), vehicle: saline with Tween-80",109 % of control
same,T/C,"dose: 300.0 mg/kg/injection, schedule: Q04DX003 (ip), vehicle: saline with Tween-80",96 % of control
